Measurements from US4132846A.
≈ marks a conversion by molar mass, not a printed value. Where two headings read alike, the source gives them in different places.

Columns and labels:
Format in all cases: cell-based
[1] = system: Proteus vulgaris ATCC 6897; assay: microbe, parasite or virus in culture; conditions: ATCC6897, pH 8, read-out: minimum Inhibitory Concentration
[2] = system: Staphylococcus aureus ATC 6538P; assay: MIC, agar dilution method at pH 8.0; conditions: ATC6538P
[3] = system: Klebsiella pneumoniae ATCC 10031; assay: MIC, agar dilution method at pH 8.0; conditions: ATCC10031, pH 8, read-out: minimum Inhibitory Concentration
[4] = system: Escherichia coli T-2; assay: MIC, agar dilution method at pH 7.2; conditions: T2, read-out: Minimum Inhibitory Concentration
Text: (§1) Anti-bacterial Spectrum (Minimum Inhibitory Concentration, mcg/ml)

[5] = system: Sarcina lutea ATCC 9341; assay: MIC, agar dilution method at pH 7.2; conditions: Micrococcus luteus, ATCC9341, read-out: Minimum Inhibitory Concentration
Text: as §1

[6] = system: Proteus morganii KY 4298; assay: MIC, agar dilution method at pH 7.2; conditions: Morganella morganii, KY4298, pH 7.2, read-out: Minimum Inhibitory Concentration
Text: as §1

[7] = system: Staphylococcus aureus 209 P; assay: MIC, agar dilution method at pH 7.2; conditions: read-out: Minimum Inhibitory Concentration
Text: as §1

[8] = system: Staphylococus aureus Smith; assay: MIC, agar dilution method at pH 7.2; conditions: Staphylococus aureus Smith; agar dilution, pH 7.2; read-out: Minimum Inhibitory Concentration
Text: as §1

[9] = system: Escherichia coli T-5; assay: MIC, agar dilution method at pH 7.2; conditions: T5, read-out: Minimum Inhibitory Concentration
Text: as §1

[10] = system: Pseudomonas aeruginosa BMH 1; assay: MIC, agar dilution method at pH 7.2; conditions: BMH1, read-out: Minimum Inhibitory Concentration
Text: as §1

[11] = system: Klebsiella pneumoniae No. 8045; assay: MIC, agar dilution method at pH 7.2; conditions: read-out: Minimum Inhibitory Concentration
Text: as §1

[12] = system: Proteus mirabilis 1287; assay: MIC, agar dilution method at pH 7.2; conditions: read-out: Minimum Inhibitory Concentration
Text: as §1

[13] = system: Bacillus subtilis ATCC 6633; assay: MIC, agar dilution method at pH 7.2; conditions: ATCC6633, read-out: Minimum Inhibitory Concentration
Text: as §1

[14] = system: Proteus vulgaris 6897; assay: MIC, agar dilution method at pH 7.2
Text: as §1

[15] = system: Proteus rettgeri KY 4288; assay: MIC, agar dilution method at pH 7.2; conditions: Providencia rettgeri, KY4288, pH 7.2, read-out: Minimum Inhibitory Concentration
[16] = system: Pseudomonas aeruginosa KY 8516; assay: MIC, agar dilution method at pH 7.2; conditions: KY8516, Pseudomonas aeruginosa KY 8516 (probably kanamycin acetyltransferase), read-out: Minimum Inhibitory Concentration
[17] = system: Pseudomonas aeruginosa BMH 1; assay: MIC, agar dilution method at pH 8.0; conditions: BMH1, read-out: minimum Inhibitory Concentration
[18] = system: Bacillus subtilis No. 10707; assay: MIC, agar dilution method at pH 8.0
[19] = system: Escherichia coli KY 8327; assay: MIC, agar dilution method at pH 7.2; conditions: KY8327, Escherichia coli KY 8327 (produces gentamicin adenyltransferase), read-out: Minimum Inhibitory Concentration
Text: as §1
^1 produces gentamicin adenyltransferase

[20] = system: Escherichia coli KY 8348; assay: MIC, agar dilution method at pH 7.2; conditions: KY8348, Escherichia coli KY 8348 (gentamicin acetyltransferase Type I), read-out: Minimum Inhibitory Concentration
[21] = system: Salmonella typhosa ATCC 9992; assay: MIC, agar dilution method at pH 8.0; conditions: Salmonella enterica, pH 8, read-out: minimum Inhibitory Concentration
[22] = system: Pseudomonas aeruginosa KY 8512; assay: MIC, agar dilution method at pH 7.2; conditions: KY8512, Pseudomonas aeruginosa KY 8512 (neomycin-kanamycin phosphotransferase Type I and II, streptomycin phosphotransferase), read-out: Minimum Inhibitory Concentration
Text: as §1
^7 produces neomycin-kanamycin phosphotransferase Type I and Type II
and streptomycin phosphotransferase

[23] = system: Escherichia coli KY 8321; assay: MIC, agar dilution method at pH 7.2; conditions: KY8321, Escherichia coli KY 8321 (gentamicin adenyltransferase and neomycin-kanamycin phosphotransferase Type II), read-out: Minimum Inhibitory Concentration
Text: ^2 produces gentamicin adenyltransferase and neomycin-kanamycin
phosphotransferase Type II

[24] = system: Shigella sonnei ATCC 9290; assay: microbe, parasite or virus in culture; conditions: ATCC9290, agar dilution, pH 8.0, read-out: minimum Inhibitory Concentration
[25] = system: Escherichia coli KY 8349; assay: MIC, agar dilution method at pH 7.2; conditions: KY8349, Escherichia coli KY 8349 (neomycin-kanamycin phosphototransferase Type I), read-out: Minimum Inhibitory Concentration
Text: ^4 produces neomycin-kanamycin phosphototransferase Type I

[26] = system: Escherichia coli ATC 26; assay: MIC, agar dilution method at pH 8.0; conditions: ATC26, read-out: minimum Inhibitory Concentration
[27] = system: Pseudomonas aeruginosa KY 8511; assay: MIC, agar dilution method at pH 7.2; conditions: KY8511, Pseudomonas aeruginosa KY 8511 (gentamicin acetyltransferase Type I and neomycin-kanamycin phosphotransferase Type I), read-out: Minimum Inhibitory Concentration
Text: ^6 produces gentamicin acetyltransferase Type I and neomycin-kanamyci

[28] = system: Pseudomonas aeruginosa KY 8510; assay: MIC, agar dilution method at pH 7.2; conditions: KY8510, Pseudomonas aeruginosa KY 8510 (kanamycin acetyltransferase), read-out: Minimum Inhibitory Concentration
[29] = system: Providencia sp. 164; assay: MIC, agar dilution method at pH 7.2; conditions: Providencia sp. 164 (gentamicin acetyltransferase Type II), read-out: Minimum Inhibitory Concentration
[30] = system: Escherichia coli KY 8327; assay: MIC, agar dilution method at pH 8.0; conditions: KY8327, Escherichia coli KY 8327 (produces gentamicin adenyltransferase), read-out: minimum Inhibitory Concentration
Text: (§2) The former bacterium inactivates kanamycins and gentamicins by adenylation, and the latter inactivates gentamicins by acetylation.

[31] = system: Escherichia coli KY 8348; assay: MIC, agar dilution method at pH 8.0; conditions: KY8348, Escherichia coli KY 8348 (produces gentamicin acetyltransferase Type I), read-out: minimum Inhibitory Concentration
Text: as §2

## CNCC1CCC(N)C(OC2C(N)CC(NC(=O)C(O)CN)C(OC3OCC(C)(O)C(NC)C3O)C2O)O1 (racemic) [DL-form]
[1]
  MIC: 0.033 µg/mL (≈ 0.0599 µM)
[2]; Staphylococcus aureus ATC 6538P, agar dilution, pH 8.0, read-out: minimum Inhibitory Concentration
  MIC: 0.065 µg/mL (≈ 0.118 µM)
[3]
  MIC: 0.033 µg/mL (≈ 0.0599 µM)
[4]
  MIC: 0.4 µg/mL (≈ 0.726 µM)
[5]
  MIC: 0.4 µg/mL (≈ 0.726 µM)
[6]
  MIC: 0.78 µg/mL (≈ 1.42 µM)
[7]
  MIC: 0.1 µg/mL (≈ 0.182 µM)
[8]
  MIC: 0.05 µg/mL (≈ 0.0908 µM)
[9]
  MIC: 0.4 µg/mL (≈ 0.726 µM)
[10]
  MIC: 1.56 µg/mL (≈ 2.83 µM)
[11]
  MIC: 0.2 µg/mL (≈ 0.363 µM)
[12]
  MIC: 3.12 µg/mL (≈ 5.67 µM)
[13]
  MIC: 0.1 µg/mL (≈ 0.182 µM)
[14]; Proteus vulgaris, 6897, pH 7.2, read-out: Minimum Inhibitory Concentration
  MIC: 3.12 µg/mL (≈ 5.67 µM)
[15]
  MIC: 0.78 µg/mL (≈ 1.42 µM)
[16]
  MIC: 3.12 µg/mL (≈ 5.67 µM)
[17]
  MIC: 1.04 µg/mL (≈ 1.89 µM)
[18]; Bacillus subtilis No. 10707, agar dilution, pH 8.0, read-out: minimum Inhibitory Concentration
  MIC: 0.008 µg/mL (≈ 0.0145 µM)
[19]
  MIC: 0.4 µg/mL (≈ 0.726 µM)
[20]
  MIC: 0.2 µg/mL (≈ 0.363 µM)
[21]
  MIC: 0.004 µg/mL (≈ 0.00726 µM)
[22]
  MIC: 0.78 µg/mL (≈ 1.42 µM)
[23]
  MIC: 0.2 µg/mL (≈ 0.363 µM)
[24]
  MIC: 0.016 µg/mL (≈ 0.0291 µM)
[25]
  MIC: 0.2 µg/mL (≈ 0.363 µM)
[26]
  MIC: 0.008 µg/mL (≈ 0.0145 µM)
[27]
  MIC: 3.12 µg/mL (≈ 5.67 µM)
[28]
  MIC: 3.12 µg/mL (≈ 5.67 µM)
[29]
  MIC: 12.5 µg/mL (≈ 22.7 µM)
[30]
  MIC: 0.004 µg/mL (≈ 0.00726 µM)
[31]
  MIC: 0.004 µg/mL (≈ 0.00726 µM)

## CNCC1CCC(N)C(OC2C(N)CC(NC(=O)[C@H](O)CN)C(OC3OCC(C)(O)C(NC)C3O)C2O)O1 (stereo partly drawn) [D-form]
[1]
  MIC: 0.033 µg/mL (≈ 0.0599 µM)
[2]; Staphylococcus aureus, pH 8, read-out: minimum Inhibitory Concentration
  MIC: 0.004 µg/mL (≈ 0.00726 µM)
[3]
  MIC: 0.004 µg/mL (≈ 0.00726 µM)
[4]
  MIC: 0.2 µg/mL (≈ 0.363 µM)
[7]
  MIC: 0.05 µg/mL (≈ 0.0908 µM)
[10]
  MIC: 1.56 µg/mL (≈ 2.83 µM)
[11]
  MIC: 0.2 µg/mL (≈ 0.363 µM)
[12]
  MIC: 3.12 µg/mL (≈ 5.67 µM)
[13]
  MIC: 0.05 µg/mL (≈ 0.0908 µM)
[14]; Proteus vulgaris 6897, agar dilution, pH 7.2, read-out: Minimum Inhibitory Concentration
  MIC: 0.78 µg/mL (≈ 1.42 µM)
[17]
  MIC: 2.08 µg/mL (≈ 3.78 µM)
[18]; Bacillus subtilis, NO.10707, pH 8, read-out: minimum Inhibitory Concentration
  MIC: 0.004 µg/mL (≈ 0.00726 µM)
[19]
  MIC: 0.2 µg/mL (≈ 0.363 µM)
[20]
  MIC: 0.2 µg/mL (≈ 0.363 µM)
[21]
  MIC: 0.004 µg/mL (≈ 0.00726 µM)
[22]
  MIC: 1.56 µg/mL (≈ 2.83 µM)
[23]
  MIC: 0.2 µg/mL (≈ 0.363 µM)
[24]
  MIC: 0.008 µg/mL (≈ 0.0145 µM)
[25]
  MIC: 0.2 µg/mL (≈ 0.363 µM)
[26]
  MIC: 0.004 µg/mL (≈ 0.00726 µM)
[27]
  MIC: 3.12 µg/mL (≈ 5.67 µM)
[28]
  MIC: 3.12 µg/mL (≈ 5.67 µM)
[29]
  MIC: 6.25 µg/mL (≈ 11.4 µM)
[30]
  MIC: 0.004 µg/mL (≈ 0.00726 µM)
[31]
  MIC: 0.004 µg/mL (≈ 0.00726 µM)
